Results as given in patent US6057294A, “Peptide” (Northern Sydney Area Health Service of Pacific Highway, priority 1995, dated 2000).
Ends that are not written are not given here.

Assays:
[1] = test system: adjuvant induced arthritis in rats; assay: Adjuvant induced arthritis in rats; assay type: in vivo, rat; settings: for EFFECT: peptides 7 mg/rat, CS 50 mg/kg, DXM 2 mg/kg, given with MTB adjuvant; for tail thickness: n = 5
[2] = test system: 2B4.11 T-cell activation (IL-2 production); assay: Antigen presentation assay (IL-2 production by 2B4.11 T-cells, CTLL proliferation readout); assay type: cell-based; settings: 100 μM
Source text: An antigen presentation assay (described below) examined the ability of a number of peptides to inhibit T-cell activation following antigen recognition, by measuring the product of T-cell activation, Interleukin-2 (IL-2).
Material. The following cell lines were used: 2B4.11, a T-cell hybridoma that expresses a complete antigen receptor on the cell surface (Samelson et al., 1983) and produces IL-2 following antigen recognition (cytochrome c). Interleukin-2 dependent T-cell line (CTLL) for conventional biological IL-2 assays; and the B-cell hybridoma cell line LK 35.2 (LK, I-E^k bearing; Kappler et al., 1982) which acts as the antigen presenting cell. The hybridomas were grown in TCM. Cytochrome c (Sigma, USA) was added in the media to give a final concentration of 50 μM in the antigen presenting assay.
Peptides examined included: core peptide, seven other control peptides from a variety of sources having an equivalent length to core peptide and peptides A, B, C, D, E and F. The final concentration of the peptides in the antigen presentation assay was examined at several levels ranging from 10 μM to 100 μM.
Method. […] Supernatants were recovered and IL-2 content determined by CTLL proliferation. […] In addition to measuring ^3 H-thymidine incorporation, IL-2 measurements (IU/ml) were also determined. […]

TCR on 2B4.11 cells = assay: TCR assembly and cell surface expression on T-cells by flow cytometry; assay type: cell-based
Procedure: The T-cell hybridoma 2B4.11 which expresses a complete TCR on the cell surface was used as a positive control to assess the effects of peptides on TCR expression. The cells were grown in TCM. The β-deficient variant 21.2.2 and the β- and .zeta.-deficient cell line 3.12.29, derived by repetitive subcloning of 2B4.11 cells (Sussman et al., 1988) and lacking TCR expression were used as negative controls.
Peptides tested included core peptide, lipopeptides and a peptide from tumor necrosis factor receptor termed 558 (used as a negative control). […]
The following antibodies were used for immuno-precipitation and flow cytometry analysis: Mouse IgG2a monoclonal antibody (MAb) against TCR-α chain of the T-cell hybridoma 2B4 (A2B4-2, Samelson et al., 1983), MAb against 2B4.11 TCR-β chain (K)25), hamster IgG anti-CD3-ε MAb (145-2C11 [2C11], Leo et al., 1987), rabbit anti-CD3-ε polyclonal antiserum raised against purified mouse CD3-ε (127, Minami et al., 1987), anti-CD3-δ polyclonal antibody (R9) raised in goat immunized with a COOH-terminal peptide of the mouse CD3-δ chain (Samelson et al., 1986).
FACS analysis: 1×10^6 (2B4.11, 21.2.2) cells were incubated with a number of separate peptides and lipopeptides in a final concentration of 10 μM overnight. The cells were then wvashed with PBS and incubated with 50 μl primary antibody (A2B4 or 2C11) for 30 mins at 4° C. […]

[3] = test system: experimental allergic neuritis in Lewis rats; assay: Experimental allergic neuritis (EAN); assay type: in vivo, rat; settings: peptide added to immunisation emulsion at 70 mg/ml
[4] = test system: diabetes in NOD/Lt (F) mice; assay: Cyclophosphamide induced diabetes in NOD/Lt (F) mice; assay type: in vivo, mouse; settings: for PERCENTAGE OF MICE DEVELOPING DIABETES: 250 μg s.c. on Day -1, 0 and 1, n = 16
Procedure: In yet another model of T-cell mediated disease the effects of subcutaneously injected core peptide on the induction of diabetes in NOD/Lt (F) mice was tested "blind" by an independent experimenter (Prof L Harrison, WEHI, Melbourne). NOD/Lt(F) mice 10 weeks old at experimental Day 0. This is a high-incidencestrain commonly used as an animal model for diabetes. Core peptide dissolved in squalane at a stock concentration of 3.33 mg/ml. Ovalbumin used as a control was suspended in squalane at a stock concentration of 3.33 mg/ml. Peptide and ovalbumin were "solubilised" just prior to injection, with vortexing. A total of 250 μg (75 μl) was injected subcutaneously on the right flank on Day -1, 0 and 1. Mice were given intraperitoneal cyclophosphamide in water at 300 mg/kg on Day 0. Blood glucose measurements were taken on Day 0, 10, 14 and 21. There were 16 mice in the treatment group and 16 in the ovalbumin control group.

For `C[C@@H]1C[C@H]2[C@@H]3CCC4=CC(=O)C=C[C@]4(C)[C@@]3(F)[C@@H](O)C[C@]2(C)[C@@]1(O)C(=O)CO` [DXM, dexamethasone, reference compound], the “onset of arthritis delayed by” value ([1]; 2 mg/kg) was 3 to 4 days and the EFFECT [1] was “No effect”.
With `CCCCCCCCCCCCCCCC(=O)O` [Palmitic acid, reference compound] the “effect on IL-2 production” value [2] was “did not affect IL-2 production”.
In the case of GLRILLLKV [core peptide], the “cell surface expression of TCR” value (TCR on 2B4.11 cells; 10 μM, overnight, 2B4.11 cells) is reported as “did not alter the cell surface expression”, the “T-cell surface antigen receptor expression” value (TCR on 2B4.11 cells; 100 μM, incubation 1-10 days) is reported as “no change in T-cell surface antigen receptor expression” and the “reduction in IL-2 production compared to control” value [2] is reported as 15%-30%. For the same compound, the “EFFECT OF PEPTIDE” value ([1]; 1.7 mg) was “No effect”, the “EFFECT OF PEPTIDE” value ([1]; 3.5 mg) was “Protective” and the “EFFECT OF PEPTIDE” value ([1]; 7 mg) was “Protective”. For the same compound, the tail thickness ([1]; DAY 5, MTB + peptide) was 7.62 mm, the tail thickness ([1]; DAY 10, MTB + peptide) was 8.24 mm and the tail thickness ([1]; DAY 15, MTB + peptide) was 8.76 mm. For the same compound, the tail thickness ([1]; DAY 20, MTB + peptide) was 8.96 mm, the tail thickness ([1]; DAY 25, MTB + peptide) was 9.10 mm and the “ulceration and inflammation at the site of injection” value ([1]; compared with MTB alone) was “not present”. The “effect on adjuvant arthritis” value ([1]; comparison among peptides) was “Best results”, the “animals with no evidence of arthritis” value ([1]; first experiment, 3 rats per group, 0.1 ml suspension in adjuvant, after 18 days) was 2/3 and the EFFECT [1] was “Protective”. For the same compound, the “difference in tail measurements versus saline injected rats” value ([1]; rat, in vivo) was “not statistically significant”, the “induction and clinical severity of EAN” value [3] was “delayed induction and clinical severity of disease” and the “PERCENTAGE OF MICE DEVELOPING DIABETES” value ([4]; DAY 0) was 0%. For the same compound, the “PERCENTAGE OF MICE DEVELOPING DIABETES” value ([4]; DAY 10) was 0%, the “PERCENTAGE OF MICE DEVELOPING DIABETES” value ([4]; DAY 14) was 5% and the “PERCENTAGE OF MICE DEVELOPING DIABETES” value ([4]; DAY 21) was 12%. The “effect on the induction of autoimmune beta cell destruction (diabetes)” value ([4]; mouse, in vivo) was “protective effect”.
In the case of “Ovalbumin: Ovalbumin used as a control, suspended in squalane [reference compound]”, the “PERCENTAGE OF MICE DEVELOPING DIABETES” value ([4]; DAY 0) is reported as 0%, the “PERCENTAGE OF MICE DEVELOPING DIABETES” value ([4]; DAY 10) is reported as 0% and the “PERCENTAGE OF MICE DEVELOPING DIABETES” value ([4]; DAY 14) is reported as 42%. For the same compound, the “PERCENTAGE OF MICE DEVELOPING DIABETES” value ([4]; DAY 21) was 65%.
